The subject of test [1] is CD46 cell surface expression, 22Rv1 cells. Kind of test: CD46 cell surface expression by flow cytometry using YS5, 22Rv1 cells. The class given is cell-based. The protocol: (§1) AR positive 22Rv1 cells were exposed to enzalutamide (5 μM) and CD46 cell surface expression was measured by flow cytometry using YS5. As a reference, prostate specific membrane antigen (PSMA) was also measured at the same time. […] MFI: median fluorescence intensity. See right portion of FIG. 1.
(§2) Methods: 22Rv1 and Du145 cells were exposed to varying concentrations of the Stat3 inhibitor C188-9 and the glucocorticoid receptor inhibitor mifepristone for 7-10 days at 37° C. in culture media, and cell surface CD46 expression is detected by flow cytometry using the anti-CD46 antibody YS5 followed by AlexaFluo-617 labeled anti-human Fc secondary antibody. MFI (median fluorescence intensity) was recorded and analyzed by Student t-test (for two group comparison) and One-way ANOVA (for group number >2).

The subject of test [2] is CD46 cell surface expression, Du145 cells. Kind of test: CD46 cell surface expression by flow cytometry, Du145 cells. The class given is cell-based. The conditions noted are these: 7 days; for CD46 cell surface expression (MFI): Du145 cells, 37° C. The protocol: as §2
Test [3] relates to CD46 cell surface antigen density, H660 cells. Kind of test: CD46 cell surface antigen density by quantitative flow cytometry, H660 cells. The class given is cell-based. The conditions noted are these: AR-negative neuroendocrine H660 cells, 10 μM abiraterone. The protocol: The neuroendocrine prostate cancer cell line H660, which is AR-negative, was exposed to an ASI (in this case, 10 μM abiraterone), and CD46 cell surface antigen density was measured by quantitative flow cytometry. Over 2-fold increase of CD46 antigen density was found following ASI treatment.

For the next test, the system named is LNCaP-C4-2B xenografts. The class given is in vivo. The conditions noted are these: mice with subcu LNCaP-C4-2B xenografts; 50 mg/kg daily for 4 weeks from day 10; single iv 3 mg/kg CD46 ADC on Day-14; 69 days. The protocol: An in vivo tumor implantation mouse model was studied to measure the effect of pre-treatment with enzalutamide followed by andi-CD46 ADC treatment. LNCaP-C4-2B cells were implanted in mice subcu on Day-0. Starting on day 10, the mice were administered with 50 mg/kg, daily, for 4 weeks. […] FIG. 7 depicts the survival rate of the mice.

Test [4] concerns prostate specific membrane antigen (PSMA), 22Rv1 cells. Nature of the test: PSMA measured as reference by flow cytometry, 22Rv1 cells. It counts as cell-based. Conditions: AR positive 22Rv1 cells, enzalutamide 5 μM. As for the experimental part:
as §1

For test [5], the system named is CD46 antigen density, LNCaP-C4-2B cells. Kind of test: CD46 antigen density by quantitative flow cytometry, LNCaP-C4-2B cells. Conditions: 10 μM, 7 days. The class given is cell-based. An excerpt: CD46 antigen density was *p<0.05; **p<0.01 (p=0.0091), Student's test, duplicates.
For test [6], the system named is CD46 cell surface expression, VCaP cells. Kind of test: CD46 cell surface expression by flow cytometry using YS5, VCaP cells. The class given is cell-based. Conditions: AR positive VCaP cells, enzalutamide 5 μM, versus control cells. As for the experimental part: AR positive VCaP cells were exposed to enzalutamide (5 μM) and CD46 cell surface expression was measured by flow cytometry using the YS5 antibody. MFI: median fluorescence intensity.

For test [7], the target named is T1, CD46 on the surface of prostate cancer cells (human, UniProt P15529 35-392).
T1 sequence (looked up): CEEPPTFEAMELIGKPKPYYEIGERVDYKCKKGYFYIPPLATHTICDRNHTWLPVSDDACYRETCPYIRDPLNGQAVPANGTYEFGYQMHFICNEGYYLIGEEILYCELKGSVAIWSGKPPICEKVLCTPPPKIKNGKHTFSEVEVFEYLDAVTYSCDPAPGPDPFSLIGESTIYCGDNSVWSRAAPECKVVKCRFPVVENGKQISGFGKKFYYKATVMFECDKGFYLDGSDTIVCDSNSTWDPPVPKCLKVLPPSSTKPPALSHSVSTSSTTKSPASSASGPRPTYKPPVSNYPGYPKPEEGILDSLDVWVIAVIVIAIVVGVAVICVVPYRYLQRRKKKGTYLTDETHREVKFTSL
Nature of the test: cell-based or functional assay.

Test [8] concerns the target T1, CD46 on the surface of prostate cancer …. Nature of the test: flow cytometry on VCaP and 22Rv1 cells (figure legend). The protocol:
AR positive VCaP cells were exposed to enzalutamide (5 μM) and CD46 cell surface expression was measured by flow cytometry using the YS5 antibody. MFI: median fluorescence intensity. […] AR positive 22Rv1 cells were exposed to enzalutamide (5 μM) and CD46 cell surface expression was measured by flow cytometry using YS5. As a reference, prostate specific membrane antigen (PSMA) was also measured at the same time. Enzalutamide-induced upregulation was unique to CD46 but not PSMA. MFI: median fluorescence intensity. See right portion of FIG. 1.
AR positive 22Rv1 cells were exposed to enzalutamide (5 μM) and CD46 cell surface expression was measured by flow cytometry using YS5. As a reference, prostate specific membrane antigen (PSMA) was also measured at the same time. Enzalutamide-induced upregulation was unique to CD46 but not PSMA. MFI: median fluorescence intensity. See right portion of FIG. 1.

On to `COc1ccc(S(=O)(=O)Nc2cc(-c3c(O)ccc4ccccc34)c(O)c3ccccc23)cc1` [C188-9, N-(1′, 2-Dihydroxy-1,2′-binaphthalen-4′-yl)-4-methoxybenzenesulfonamide], for which the “CD46 cell surface expression (MFI)” value in test [1] (22Rv1 cells, C188-9 low/mid concentrations (2.5 and 5 μM), 37° C., 10 days) is given as “stimulates CD46 cell surface presentation”; in [2] (C188-9 10, 20 and 50 μM) it was “inhibits CD46 cell surface presentation”. The “CD46 cell surface presentation (MFI)” value in test [1] (prostate cancer cells (22Rv1, 10 μM, 10 days, single experiment, FIG. 12; Du145, FIG. 13), C188-9 high concentrations (>10 μM)) is “inhibits”.

As to `C[C@]12CC[C@H](O)CC1=CC[C@@H]1[C@@H]2CC[C@]2(C)C(c3cccnc3)=CC[C@@H]12` [abiraterone], in test [3], the “increase of CD46 antigen density” value is on record as “Over 2 fold”.

`CNC(=O)c1ccc(N2C(=S)N(c3ccc(C#N)c(C(F)(F)F)c3)C(=O)C2(C)C)cc1F` [enzalutamide]: the “tumor response / overall survival (Kaplan-Meier)” value in the test with LNCaP-C4-2B xenografts is reported as “resistant to enz treatment alone”. Moreover, the “PSMA expression (MFI)” value in test [4] is listed as “not PSMA”. Further, in test [5], the CD46 antigen density result is “increased”. In addition, the “CD46 cell surface expression (MFI)” value in [6] is listed as “significantly more CD46 expression than control cells”; in [1] (AR positive 22Rv1 cells, enzalutamide 5 μM), “upregulation was unique to CD46”. In addition, the “CD46 cell surface expression” value in [2] (AR-null Du145 cells, enzalutamide 5 μM, p<0.0001, n=4) was “increase significantly”.

Take `CC#C[C@]1(O)CC[C@H]2[C@@H]3CCC4=CC(=O)CCC4=C3[C@@H](c3ccc(N(C)C)cc3)C[C@@]21C` [mifepristone]: the “CD46 cell surface expression (MFI)” value in test [1] (22Rv1 cells, mifepristone 2.5 μM, 37° C., 10 days, Student t test) is “not significant”; in [2] (mifepristone high concentrations (20 and 50 PM)), “inhibits CD46 cell surface presentation”.

B1: CD46 ADC (YS5-MC-vc-PAB-MMAF) (antibody, human IgG1, lambda, V domains shown)
VH: QVQLVQSGGGVVQPGRSLRLACAASGLTVNNYAMHWVRQAPGKGLEWVAVISYDGNNKYYADSVKGRFTISRDNSKNTLYLQMNSLRAEDTAVYYCAKGGGYFDLWGRGTLVTVSS
VL: QSVLTQPPSVSGAPGQRVTISCTGSSSNIGAGYDVHWYQQLPGTAPKLLIYGNNNRPSGVPDRFSGSKSGTSASLAITGLQAEDEADYYCSSYTSGTWLFGGGTKLTVLG
modifications: MC-vc-PAB-MMAF drug-linker conjugated; sites and drug to antibody ratio not stated for this conjugate
Turning to B1, the “EC50 of cell killing, LNCaP-C4-2B cells pre-exposed to abiraterone against cells not pre-exposed” value in test [7] came to 17 fold.

B2: YS5 anti-CD46 antibody (antibody, human IgG1, lambda, V domains shown)
VH: B1 VH
VL: B1 VL
notes: also called YS5FL; anti-CD46 antibody YS5
Turning to B2, the binding result in [8] is “binds”.

The values are drawn from patent US20240307550A1, “MODULATION OF CD46 CELL SURFACE MARKER IN BOTH ANDROGEN RECEPTOR-POSITIVE AND NEGATIVE CANCER CELLS” (The Regents of the University of California, priority 2021, published 2024).
